Converted amounts (≈) assume the structure as drawn.
Tests used:
Assay type in all cases: functional
[1] = system: Staphylococcus aureus; assay: Antibacterial activity against methicillin resistant Staphylococcus aureus ATCC 33591 infected in iv dosed CD1 mouse model of septicemia assessed as protection against lethal infection administered as single dose starting from 1 hr post infection and measured 48 hrs post infection relative to control; conditions: ATCC 33591, iv, time 47 hrs, read-out: PD50
[2] = system: Enterococcus durans; assay: Antibacterial activity against Enterococcus durans ATCC 6056 incubated for 16 hrs by two-fold serial dilution method
[3] = system: Streptococcus salivarius; assay: Antibacterial activity against Streptococcus salivarius ATCC 13419 incubated for 16 hrs by two-fold serial dilution method
[4] = system: Bacillus subtilis; assay: Antibacterial activity against Bacillus subtilis ATCC 6051 incubated for 16 hrs by two-fold serial dilution method
[5] = system: Staphylococcus aureus; assay: Antibacterial activity against Staphylococcus aureus ATCC 29213 incubated for 16 hrs by two-fold serial dilution method
[6] = system: Staphylococcus epidermidis; assay: Antibacterial activity against Staphylococcus epidermidis ATCC 14990 incubated for 16 hrs by two-fold serial dilution method

CN[C@H](CC(C)C)C(=O)N[C@H]1C(=O)N[C@@H](CC(N)=O)C(=O)N[C@H]2C(=O)N[C@H]3C(=O)N[C@H](C(=O)N[C@H](C(=O)O)c4cc(O)cc(O)c4-c4cc3ccc4O)[C@H](O)c3ccc(c(Cl)c3)Oc3cc2cc(c3O[C@@H]2O[C@H](CO)[C@@H](O)[C@H](O)[C@H]2O[C@H]2C[C@](C)(N)[C@H](O)[C@H](C)O2)Oc2ccc(cc2Cl)[C@H]1O [VANCOMYCIN]
ED50 [1]: 2.75 mg/kg

CC[C@H](C)[C@H](NC(=O)[C@@H](Cc1ccccc1)NC)C(=O)N[C@@H](CO)C(=O)N[C@H](CCC(N)=O)C(=O)N[C@@H](C(=O)N[C@H](C(=O)N[C@@H](CO)C(=O)N[C@H]1C(=O)N[C@@H](CCCCNS(=O)(=O)c2ccc(-c3c4ccc(=[N+](CC)CC)cc-4oc4cc(N(CC)CC)ccc34)c(S(=O)(=O)[O-])c2)C(=O)N[C@@H](CCCNC(=N)N)C(=O)N[C@@H]([C@@H](C)CC)C(=O)O[C@H]1C)[C@@H](C)CC)[C@@H](C)CC
MIC [2]: 8 µg/mL (≈ 4.34 µM)
MIC [3]: 4 µg/mL (≈ 2.17 µM)
MIC [4]: 4 µg/mL (≈ 2.17 µM)
MIC [5]: 8 µg/mL (≈ 4.34 µM)
MIC [6]: 8 µg/mL (≈ 4.34 µM)

— ChEMBL document CHEMBL4680273, “Teixobactin: A Paving Stone toward a New Class of Antibiotics?” (2020)
